Reference: patent US20050037033A1, “Microbicidal compositions and methods and use” (priority 2003, published 2005)

Experiments:
[1] = system: Prevotella melaninogenica; experiment: Anaerobe inhibition assay; format: cell-based; conditions: 2 strains, read-out: Minimum Inhibitory Concentrations (MICs)
Bacteroides fragilis = experiment: Anaerobe inhibition assay; format: cell-based; conditions: 1 strain, read-out: Minimum Inhibitory Concentrations (MICs)
Clost perfringes = experiment: Anaerobe inhibition assay; format: cell-based, Clostridium perfringes; conditions: Clostridium, 2 strains, read-out: Minimum Inhibitory Concentrations (MICs)
Procedure: Working in an anaerobic chamber, the anaerobes were suspended into brucella broth to the turbidity of the 0.5 McFarland standard and pipetted into the wells of the Steers replicator head, removed from the chamber and stamped onto the supplemented Brucella agar plates containing the serial dilutions of the antimicrobials and the growth control plates. The final inoculum was 10^5 cfu/spot.
The anaerobes were incubated in an anaerobic chamber at 37° C. for 2 days; aerobes were incubated in ambient air at 36° C. for 20h.

HSV-2 = HSV-2 virucidal assay; format: cell-based; conditions: Human alphaherpesvirus 2, 1 h, at 400 μg/ml (highest concentration tested); 60 min at 37° C.
Procedure: The virucidal activities of ciclopiroxolamine against HSV-2 were tested by mixing various concentrations of the test compound with 2×10^5 PFU of HSV-2, respectively, and incubating at 37° C. for 60 min. The culture medium was included as a […] control. At the end of incubation, the mixtures were diluted 1 in 1000 with culture medium. The infectivity of treated virus was determined by a standard viral plaque assay. Briefly, confluent Vero cells were washed with PBS and subsequently infected with 1 ml of treated mixture at 37° C. for 1 h. After viral inoculum was removed, the infected cells were washed with PBS and overlaid with 0.5% methylcellulose in culture medium. The infected cells were incubated at 37° C. for 2 days to allow the plaques to develop.

Cytotoxicity assay [2] = format: cell-based
Procedure: (§1) The cells listed in Table 4 were incubated for the indicated period of time with different concentrations of ciclopiroxolamine and cell viability was measured by the 3-(4,5-dimethylthiazol-2-yl)-2,5-diphenyltetrazolium bromide (MTT) assay or by treatment with propidium iodide and fluorescence. Percent viability was calculated with respect to the viability of mock-exposed cells (cells incubated without compounds).
(§2) In the MTT assay, the effect of each agent on cell viability was determined using an assay in which dehydrogenases in viable cells cleave the compound 3-(4,5-dimethylthiazol-2-yl)-2,5-diphenyltetrazolium bromide (MTT), yielding a purple product (formazan) which can be measured spectrophotometrically (Pauwels et al., 1988). Cells were seeded into 96 well plates at a density of 3×10^4 cells/well 24 hours prior to introduction of the microbicides. Agents were diluted in as previously indicated. Agents were added to triplicate wells in half-log serial dilutions. Cells were incubated in the absence or presence of each agent at 37° C. under 5% CO2 and 90% humidity for 2 hours. At the conclusion of each experiment, cells were washed, replenished with fresh medium and incubated with MTT (250 μl/well) for 2 hours at 37° C. Following removal of the medium (by aspiration), intracellular formazan crystals were solubilized with 10% Triton X-100 in acidified isopropanol. The resulting solutions were assayed spectrophotometrically at 570 nm and corrected for non-specific absorption at 690 nm. In this assay, measured absorbance is proportional to the viable cell number, and inversely proportional to the degree of cytotoxicity.

[3] = system: HIV-1 infected SupTi cells (strain IIIB); experiment: Cell to cell transmission assay (CTC); format: cell-based; conditions: Human immunodeficiency virus 1, IIIB, Series 2, P4-R5 cells, 2 hour incubation, read-out: 50% Effective Concentrations (IC50)
Procedure: Cell to cell transmission assay (CTC): HIV-1 infected SupTi cells (strain IIIB), killed prior to exposure, were incubated with compound and P4-R5 cells for 2 hours at 37° C., followed by washing and 48 hour incubation.

Cytotoxicity assay [4] = format: cell-based; conditions: human, HeLa cells
Procedure: as §1
as §2, with “Cells were incubated in the absence or presence of each agent at 37° C. under 5% CO2 and 90% humidity for 2 hours.” left out, “Following removal of the medium (by aspiration), intracellular formazan crystals were solubilized with 10% Triton X-100 in acidified isopropanol. The resulting solutions were assayed spectrophotometrically at 570 nm and corrected for non-specific absorption at 690 nm.” left out

Fuso. nucleatum = experiment: Anaerobe inhibition assay; format: cell-based; conditions: Fusobacterium nucleatum, 2 strains, read-out: Minimum Inhibitory Concentrations (MICs)
Peptrostrep. magnus = experiment: Anaerobe inhibition assay; format: cell-based; conditions: 2 strains, read-out: Minimum Inhibitory Concentrations (MICs)
Eubact lentum = experiment: Anaerobe inhibition assay; format: cell-based; conditions: 2 strains, read-out: Minimum Inhibitory Concentrations (MICs)
HIV = experiment: Cell-free inactivation assay; format: cell-based; conditions: virus incubated with product for 2 minutes
Procedure: Cell-free inactivation assay: Virus was incubated with product for 2 minutes, a series of 10-fold dilutions were made, each dilution was added to the host cells and viral infectivity was measured.

Peptostrep anaerobius = experiment: Anaerobe inhibition assay; format: cell-based; conditions: 1 strain, read-out: Minimum Inhibitory Concentrations (MICs)
[5] = system: HIV-1 strain III-B (X4 strain); experiment: Viral entry/binding inhibition assay (VBI), strain IIIB; format: cell-based; conditions: Human immunodeficiency virus 1, Series 2, P4-R5 cells, 2 hour incubation, read-out: 50% Effective Concentrations (IC50)
Procedure: Viral entry inhibition assay (VBI): Cell-free HIV-1 (strain III-B: X4 strain; or strain BaL: R5 strain) was incubated with compound and P4-R5 cells for 2 hours at 37° C., followed by washing and 48 hour incubation.

Mobiluncus mulieris = experiment: Anaerobe inhibition assay; format: cell-based; conditions: 2 strains, read-out: Minimum Inhibitory Concentrations (MICs)

## Cc1cc(C2CCCCC2)n(O)c(=O)c1.NCCO [CO, 6-Cyclohexyl-1-hydroxy-4-methyl-2-(1H)-pyridone ethanolamine salt]
[1]
  MIC: 40 µg/mL
Bacteroides fragilis
  MIC: 40 µg/mL
Clost perfringes
  MIC: 40 µg/mL
HSV-2
  inhibition at 400 µg/mL: 40%
Cytotoxicity assay [2]; African green monkey, Vero cells, Series 4, 2 hour incubation
  CC50 at 2 h: > 200 µg/mL
Cytotoxicity assay [2]; human, P4-R5 cells, Series 2, P4-R5, 2 hour incubation, 100 μg/ml highest conc tested
  CC50 at 2 h: > 100 µg/mL
Cytotoxicity assay [2]; human, VK-2/E6E7 cells (vaginal epithelium cell line), Series 2, VK-2/E6E7, 2 hour incubation
  CC50 at 2 h: 100 µg/mL
[3]
  IC50: 97.4 µg/mL
Cytotoxicity assay [4]; Series 1, Original material, 1 hour incubation, 100 μg/ml highest conc tested
  CC50 at 1 h: > 100 µg/mL
Cytotoxicity assay [4]; Series 3, 1 hour incubation
  CC50 at 1 h: 859 µg/mL
Fuso. nucleatum
  MIC: 40 µg/mL
Peptrostrep. magnus
  MIC: 40 µg/mL
Eubact lentum
  MIC: 40 µg/mL
HIV; At 0.09%
  log reduction (viral infectivity): At 0.09%: ≧2.0 log
HIV; At 0.3%
  log reduction (viral infectivity): At 0.3%: ≧2.7 log
Peptostrep anaerobius
  MIC: 40 µg/mL
[5]
  IC50: 45.5 µg/mL
Mobiluncus mulieris
  MIC: 40 µg/mL
